The source of these data is PMC12845078 (Pharmaceuticals, 2025).

Data set [1] has as its target T1, CYP enzymes mediating MT 6-hydroxylation in human liver microsomes (CYP1A2) (Homo sapiens, UniProt P05177).
T1 construct: tissue XenoTech; host or cells: human liver microsomes
T1 sequence (P05177 1-516): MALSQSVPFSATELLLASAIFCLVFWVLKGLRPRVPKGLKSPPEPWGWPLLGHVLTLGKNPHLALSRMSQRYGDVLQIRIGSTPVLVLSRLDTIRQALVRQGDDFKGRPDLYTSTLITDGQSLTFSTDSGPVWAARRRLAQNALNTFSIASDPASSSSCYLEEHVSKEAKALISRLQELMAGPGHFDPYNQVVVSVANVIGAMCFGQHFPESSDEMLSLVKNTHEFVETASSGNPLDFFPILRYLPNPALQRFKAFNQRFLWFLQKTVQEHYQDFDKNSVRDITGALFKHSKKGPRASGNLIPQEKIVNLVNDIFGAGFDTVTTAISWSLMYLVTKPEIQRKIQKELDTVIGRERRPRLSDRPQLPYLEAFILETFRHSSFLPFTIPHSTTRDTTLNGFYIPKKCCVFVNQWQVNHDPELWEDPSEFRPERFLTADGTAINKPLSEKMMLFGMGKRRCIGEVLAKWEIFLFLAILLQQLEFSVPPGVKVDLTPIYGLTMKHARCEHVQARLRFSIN
Put plainly: Irreversible (mechanism-based) inhibition of CBD on MT 6-hydroxylation, human liver microsomes. The class given is in vitro ADME. Here is the method:
(§1) The reaction was initiated by adding the NADPH working solution that had also been pre-incubated for 5 min. […] After pre-incubation for different durations (0, 5, 10, 20, 30 min), 10 μL of the incubation mixture were transferred to a secondary incubation system containing 148 μL PBS and 2 μL MT working solution (final MT concentration: 200 μM). An additional 40 μL of NADPH were added, and the mixture was incubated for 30 min.
(§2) Irreversible inhibition assays: A semi-logarithmic curve was generated by plotting residual enzyme activity against pre-incubation time. The observed CYP enzyme inactivation rate (Kobs) was derived from the initial slope of the linear regression. The Lineweaver-Burk double reciprocal curve (1/Kobs vs. 1/I) described by Formula (8) was used to determine KI and Kinact: Kinact was estimated from the reciprocal of the Y-intercept, and KI was obtained from the negative reciprocal of the X-intercept.(8) 1/k=KI/Kinact1/I+1/Kinact
A general note: Microsomes from liver hold many membrane-bound enzymes, among them those of drug oxidation.

Data set [2] deals with T2, CYP1A2 (CYP enzymes mediating MT 6-hydroxylation) (Homo sapiens, UniProt P05177).
T2 construct: tissue XenoTech; host or cells: human liver microsomes
T2 sequence (P05177 1-516): T1 sequence (P05177 1-516)
Described as above. The class given is in vitro ADME. The note with it: probe melatonin (MT) 200 µM, 6-hydroxylation to 6-HMT. As to the method:
as §1, §2

Data set [3] relates to CYP enzymes of MT 6-hydroxylation. Put plainly: in vitro. The note with it: beagle, dog, liver microsomes, probe melatonin (MT) 2 μM, 6-hydroxylation to 6-HMT, IC50 Ratio (IC50 shift), DLM, 30 min pre-incubation with/without NADPH.
Experimental: (§3) The reaction was initiated by adding pre-warmed NADPH (control groups lacked NADPH). The final incubation mixture contained 100 mM PBS, 5 mM MgCl2, liver microsomes (0.5 mg/mL), 1 mM NADPH, and 0.2% BSA. […] Concentrations in beagle dog microsomal incubations were 0, 0.125, 0.25, 0.5, 1, 2, 4, 8, 16, and 32 μM. […] All samples were prepared in triplicate. The concentration of 6-HMT was quantified using LC-MS/MS.
(§4) Competitive inhibition and time-dependent inhibition assays: The production of 6-HMT without inhibitors was set as 100%.
Data set [4] in a line: Protein binding with hepatic microsomes and plasma proteins across species (summary). The class given is in vitro ADME. As to conditions: beagle (dog), rat, human, liver microsomes and plasma, pH 7.4, both hepatic microsomes and plasma proteins.
Experimental: After incubation for 20 min, a portion of the whole blood was centrifuged at 2500× g for 10 min at 4 °C to separate plasma; another portion of the whole blood was subjected to three cycles of freeze–thawing and ultrasonicated for 10 min to disrupt cells. Equal volumes of plasma and whole blood samples were added to the whole blood and plasma specimens, respectively, followed by protein precipitation with acetonitrile containing an internal standard (IS). […] The RED inserts were placed in the matching incubation plate: 200 µL of drug-containing matrix were added to the sample chamber, and 400 µL of PBS buffer (pH: 7.4) were added to the buffer chamber. After incubation in a constant-temperature shaking incubator for 6 h (37 °C), samples from the sample chamber and buffer chamber were diluted 1:1 with PBS or matrix, respectively, and proteins were precipitated with acetonitrile containing IS.
Data set [5] concerns CYP1A2-mediated metabolism of MT. As to conditions: cited from earlier work.
Data set [6] relates to CYP enzymes of MT 6-hydroxylation. As to the kind of experiment: in vitro. As to conditions: rat, liver microsomes, probe melatonin (MT) 2 μM, 6-hydroxylation to 6-HMT, IC50 Ratio (IC50 shift), RLM, 30 min pre-incubation with/without NADPH.
Experimental: as §3, §4
Another data set is described as follows: in vitro. As to conditions: human, liver microsomes, Km of MT 6-hydroxylation, HLM.
Data set [7] concerns CYP1A2-mediated metabolism of MT. Put plainly: Static DDI model prediction of CBD's impact on MT exposure, human. As to conditions: input of static DDI model. The text has this:
(AUC when co-administered with the inhibitor) to AUC[contr] (AUC without the inhibitor).

Bounds are passed on as bounds.

The kinact is the maximal first-order rate at which the target is inactivated. Usually fraction unbound stands for free concentration divided by total concentration. High values mean weak binding, low ones extensive binding. Usually Km stands for the concentration of substrate that gives half-maximal velocity.

On to `C=C(C)[C@@H]1CCC(C)=C[C@H]1c1c(O)cc(CCCCC)cc1O` [CBD, Cannabidiol], for which the Ki in data set [1] worked out at 25.6 µM; in data set [2] (human, liver microsomes) it was 0.0187 µM. Also, in data set [2] (human liver microsomes), the kinact was 0.00105 s⁻¹. Besides, the IC50 shift at 30 min in data set [3] is 1.27; in data set [6], 1.81. The fraction unbound at 6 h in data set [4] was less than 0.01. The “[I]h (estimated free concentration in liver)” value in data set [5] (human, CBD dose 2000 mg) was 3.55 µM. Besides, in data set [5] (oral administration of 2000 mg CBD), the “[I]h, concentration adopted for human” value is 3.55 µM.

In the case of `COc1ccc2[nH]cc(CCNC(C)=O)c2c1` [MT, Melatonin], in the data set “in vitro”, the Km at 15 min is 165 µM. Moreover, the “fm(CYP1A2), proportion of MT metabolized by CYP1A2” value in data set [7] was 0.92.
